ChEMBL document CHEMBL1201862, “PubChem BioAssay data set” (2004)
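Interpolation was linear, between the two tested concentrations surrounding the appropriate level; five concentrations were tested over 48 hours in 96-well plates. The concentration for 50% growth inhibition is given as GI50.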 Calls of active or inactive are those of the source. No stated cut-off is given here; in the data, active = GI50 up to about 1.1 µM and inactive = higher.

Key:
Assay in all cases: inhibition of tumour cell growth, NCI panel, 48 h
[1] = tested on: SK-MEL-5
[2] = tested on: NCI-H460
[3] = tested on: HOP-92
[4] = tested on: A549
[5] = tested on: NCI-H23
[6] = tested on: SW-620
[7] = tested on: HT-29
[8] = tested on: 786-0
[9] = tested on: SF-295
[10] = tested on: HCT-116
[11] = tested on: NCI-H522
[12] = tested on: CCRF-CEM
[13] = tested on: OVCAR-5
[14] = tested on: CAKI-1
[15] = tested on: UACC-62
[16] = tested on: HCC 2998
[17] = tested on: NCI/ADR-RES
[18] = tested on: Malme-3M
[19] = tested on: EKVX
[20] = tested on: UACC-257
[21] = tested on: RXF 393
[22] = tested on: OVCAR-8
[23] = tested on: SK-MEL-2
[24] = tested on: BT-549
[25] = tested on: SNB-19
[26] = tested on: Hs-578T
[27] = tested on: COLO 205
[28] = tested on: SF-268
[29] = tested on: MDA-MB-231
[30] = tested on: UO-31
[31] = tested on: ACHN
[32] = tested on: SN12C
[33] = tested on: SK-OV-3
[34] = tested on: M14
[35] = tested on: OVCAR-3
[36] = tested on: PC-3
[37] = tested on: IGROV-1
[38] = tested on: U-251
[39] = tested on: MCF7
[40] = tested on: LOX IMVI
[41] = tested on: T47D
[42] = tested on: MOLT-4
[43] = tested on: SR
[44] = tested on: NCI-H226
[45] = tested on: OVCAR-4
[46] = tested on: K562
[47] = tested on: SK-MEL-28
[48] = tested on: MDA-MB-435
[49] = tested on: TK-10
[50] = tested on: KM12
[51] = tested on: RPMI-8226
[52] = tested on: HCT-15
[53] = tested on: HL-60
[54] = tested on: MDA-N
[55] = tested on: DU-145
[56] = tested on: SF-539
[57] = tested on: HOP-62
[58] = tested on: SNB-75

With `CN(C)C(=O)CO/N=C1/C(=C2/C(=O)Nc3ccccc32)Nc2ccccc21` the GI50 [1] was 37.3 µM (inactive), the GI50 [2] was > 100 µM (inactive) and the GI50 [3] was > 100 µM (inactive). The GI50 [4] was > 100 µM (inactive), the GI50 [5] was > 100 µM (inactive) and the GI50 [6] was > 100 µM (inactive). For the same compound, the GI50 [7] was > 100 µM (inactive), the GI50 [8] was 64.7 µM (inactive) and the GI50 [9] was 39.9 µM (inactive). The GI50 [10] was 94.8 µM (inactive), the GI50 [11] was > 100 µM (inactive) and the GI50 [12] was > 100 µM (inactive). For the same compound, the GI50 [13] was > 100 µM (inactive), the GI50 [14] was 4.69 µM (inactive) and the GI50 [15] was > 100 µM (inactive). For the same compound, the GI50 [16] was > 100 µM (inactive), the GI50 [17] was > 100 µM (inactive) and the GI50 [18] was > 100 µM (inactive). For the same compound, the GI50 [19] was > 100 µM (inactive), the GI50 [20] was > 100 µM (inactive) and the GI50 [21] was 17.7 µM (inactive). For the same compound, the GI50 [22] was > 100 µM (inactive), the GI50 [23] was > 100 µM (inactive) and the GI50 [24] was 65.9 µM (inactive). The GI50 [25] was > 100 µM (inactive), the GI50 [26] was > 100 µM (inactive) and the GI50 [27] was 31.6 µM (inactive). The GI50 [28] was > 100 µM (inactive), the GI50 [29] was > 100 µM (inactive) and the GI50 [30] was > 100 µM (inactive). For the same compound, the GI50 [31] was > 100 µM (inactive), the GI50 [32] was > 100 µM (inactive) and the GI50 [33] was > 100 µM (inactive). For the same compound, the GI50 [34] was 97.3 µM (inactive), the GI50 [35] was > 100 µM (inactive) and the GI50 [36] was > 100 µM (inactive). The GI50 [37] was > 100 µM (inactive), the GI50 [38] was 26.6 µM (inactive) and the GI50 [39] was > 100 µM (inactive). The GI50 [40] was > 100 µM (inactive), the GI50 [41] was > 100 µM (inactive) and the GI50 [42] was > 100 µM (inactive). For the same compound, the GI50 [43] was 88.7 µM (inactive), the GI50 [44] was > 100 µM (inactive) and the GI50 [45] was > 100 µM (inactive). The GI50 [46] was > 100 µM (inactive), the GI50 [47] was > 100 µM (inactive) and the GI50 [48] was > 100 µM (inactive). The GI50 [49] was 40.9 µM (inactive), the GI50 [50] was 0.032 µM (active) and the GI50 [51] was > 100 µM (inactive). For the same compound, the GI50 [52] was greater than 100 µM, the GI50 [53] was > 100 µM (inactive) and the GI50 [54] was > 100 µM (inactive). For the same compound, the GI50 [55] was > 100 µM (inactive), the GI50 [56] was 39.3 µM (inactive) and the GI50 [57] was 18.7 µM (inactive). The GI50 [58] was 30.4 µM (inactive).
With `Clc1ccc(-c2nc3cc(Cl)ccc3[nH]2)cc1` the GI50 [1] was 32.7 µM (inactive), the GI50 [2] was 31.3 µM (inactive) and the GI50 [3] was 27.7 µM (inactive). For the same compound, the GI50 [4] was 29.3 µM (inactive), the GI50 [5] was 27.6 µM (inactive) and the GI50 [6] was 42.6 µM (inactive). For the same compound, the GI50 [7] was 33.6 µM (inactive), the GI50 [8] was 35.2 µM (inactive) and the GI50 [9] was 28.2 µM (inactive). For the same compound, the GI50 [10] was 22.9 µM (inactive), the GI50 [11] was 19.6 µM (inactive) and the GI50 [12] was 54 µM (inactive). The GI50 [14] was > 100 µM (inactive), the GI50 [15] was 32.7 µM (inactive) and the GI50 [16] was 29.8 µM (inactive). The GI50 [17] was 19.9 µM (inactive), the GI50 [18] was 48.2 µM (inactive) and the GI50 [19] was 34.9 µM (inactive). The GI50 [20] was 43.3 µM (inactive), the GI50 [21] was > 100 µM (inactive) and the GI50 [22] was 37.6 µM (inactive). For the same compound, the GI50 [23] was 26.1 µM (inactive), the GI50 [24] was 32.2 µM (inactive) and the GI50 [25] was 41.4 µM (inactive). For the same compound, the GI50 [26] was 30.8 µM (inactive), the GI50 [27] was 19.6 µM (inactive) and the GI50 [28] was 45.5 µM (inactive). The GI50 [29] was > 100 µM (inactive), the GI50 [30] was 26.2 µM (inactive) and the GI50 [31] was 39.8 µM (inactive). The GI50 [32] was 26.2 µM (inactive), the GI50 [33] was 39.3 µM (inactive) and the GI50 [34] was 36.4 µM (inactive). The GI50 [35] was 28.9 µM (inactive), the GI50 [36] was 27.2 µM (inactive) and the GI50 [37] was 43.4 µM (inactive). The GI50 [38] was 31.5 µM (inactive), the GI50 [39] was 35.6 µM (inactive) and the GI50 [40] was 29.1 µM (inactive). The GI50 [41] was 26.5 µM (inactive), the GI50 [42] was 34.1 µM (inactive) and the GI50 [43] was 32.7 µM (inactive). For the same compound, the GI50 [44] was 50 µM (inactive), the GI50 [45] was 58.1 µM (inactive) and the GI50 [46] was 38.9 µM (inactive). The GI50 [47] was 47.9 µM (inactive), the GI50 [48] was 27.6 µM (inactive) and the GI50 [49] was 30.8 µM (inactive). For the same compound, the GI50 [50] was 24 µM (inactive), the GI50 [51] was 26.8 µM (inactive) and the GI50 [52] was 30.3 µM. For the same compound, the GI50 [53] was 39.9 µM (inactive), the GI50 [54] was 29.1 µM (inactive) and the GI50 [55] was 31.8 µM (inactive). For the same compound, the GI50 [56] was 22.6 µM (inactive), the GI50 [57] was 34.4 µM (inactive) and the GI50 [58] was 40.1 µM (inactive).
